Results published in patent publication US5420289A, “Substituted indole-, indene-, pyranoindole- and tetrahydrocarbazole-alkanoic acid derivatives as inhibitors of PLA2 and lipoxygenase” (American Home Products Corporation, priority 1993, dated 1995).

Columns and labels:
[1] = system: paw edema induced by PLA2 from the diamond back cotton mouth snake (A. piscivorus piscivorus); assay: in vivo PLA2 murine paw edema assay (Example 75); design: species or system mouse (male CD-1); conditions: for ED50 at +10 min.: p.o., at +10 min after PLA2, standard drugs
Description: The ability of the compounds of the invention to inhibit paw edema induced by the exogenous administration of PLA2 is measured in the in vivo PLA2 murine paw edema assay.
The assay is carried out as follows:
Non-fasted, male CD-1 mice (8 weeks old; 31-36 grams) are placed in plastic boxes in groups of six. The right hind paw volume is measured using mercury plethysmography (zero time). Compounds are dosed orally (0.5 mL of 0.5% Tween-80) 1 or 3 hours prior to PLA2 injection or intravenously (0.2 mL in 0.3% dimethylsulfoxide/saline) 3 minutes prior to PLA2 injection. A solution of purified PLA2, from the diamond back cotton mouth snake (A. piscivorus piscivorus) is prepared in saline at a concentration of 6 mg/mL. Fifty (50) uL (0.3 mg) of this PLA2 solution is injected subcutaneously into the right hind paw with a plastic 1 mL plastic syringe (27 gauge, "1" needle). Paw volume of the injected paw is measured again at 10 minutes, 30 minutes and 60 minutes after PLA2 injection. Animals are euthanized with CO2 at the completion of the study.
The paw edema is calculated by subtracting the zero time volume from the volume recorded at each time period. Mean paw edema for each treatment group is then calculated and expressed as (mL±S.E.). Drug effects are expressed as a percent change from control (vehicle) values. Statistical significance is determined by a one-way analysis of variance with LSD comparison to control (p<0.05). ED50 's are determined using repression analysis.

[2] = system: paw edema induced by PLA2 from the diamond back cotton mouth snake (A. piscivorus piscivorus); assay: in vivo PLA2 murine paw edema assay (Example 75); design: species or system mouse (male CD-1)
[3] = system: cyclooxygenase (PGE2 synthesis) in rat polymorphonuclear leukocytes (PMN); assay: inhibition of PGE2 synthesis (cyclooxygenase) by rat glycogen-elicited PMN (Example 73); format: cell-based, rat (female Wistar); conditions: Leukocyte, * (negative) denotes a potentiation; for inhibition at 10000 µM: at 10 mM, read-out: % Inhibition (PGE2 synthesis); for inhibition at 500 µM: at 0.5 mM
Description: (§1) Rat polymorphonuclear leukocytes (PMNs) are obtained from female Wistar rats (150-200 g) which receive an injection of 6% glycogen (10 ml i.p.). Rats are sacrificed 18-24 hours post injection by CO2 asphyxiation and the elicited cells are harvested by peritoneal lavage using physiological saline (0.9% NaC1). The exudate is centrifuged at 400 ×g for 10 minutes. The supernatant fluid is discarded and the cell pellet is resuspended to a concentration of 2.0×10^7 cells/mL in HBSS containing Ca^++ and Mg^++ and 10 mM L-cysteine.
(§2) To 1 mL aliquots of cell suspension, test drugs or vehicle are added, then preincubated at 37° C. for 10 minutes. A23187 (1 mM), [^3 H]-AA (3.0 mCi/mL) and unlabeled AA (1 mM) are then added and the samples are further incubated for 10 minutes. The reaction is terminated by centrifugation and pelleting cells. Supernatants are then analyzed by HPLC analysis on a 15 cm×4.6 mm ID supelcosil LC-18 (Supelco)(3M) column, using a two solvent system at a flow rate of 1.4 mL total flow as follows:
In this assay, the procedure of Example 72 is carried out as described. However, in order to determine cyclooxygenase activity, the samples are cochromatographed with authentic reference [^3 H]-PGE2.
The results be calculated as in Example 72 and presented below: […]

[4] = target: T1, human synovial fluid PLA2 (Homo sapiens, UniProt P14555); assay: in vitro isolated phospholipase A2 assay, human synovial fluid PLA2 (Example 74); format: biochemical; design: inhibition / % Inhibition, HSF (human synovial fluid): dose or concentration left out as unconfirmed; conditions: for IC50: Table III, read-out: IC50 HSF (human synovial fluid); for inhibition: read-out: % Inhibition, HSF (human synovial fluid)
T1 sequence (P14555 21-144): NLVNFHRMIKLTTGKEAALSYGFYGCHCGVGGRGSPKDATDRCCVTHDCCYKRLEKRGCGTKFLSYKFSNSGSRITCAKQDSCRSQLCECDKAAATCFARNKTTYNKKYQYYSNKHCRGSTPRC
Outline: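 Human synovial fluid PLA2 (purified) acts on ³H-arachidonate-labelled E. coli substrate, 10 minutes at 37° C with shaking; stopped with tetrahydrofuran. Released arachidonic acid is isolated on NH2 columns, eluted with tetrahydrofuran/2% acetic acid and quantitated by β-counting against a total-counts sample.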

[5] = system: synthesis of LTB4 by rat glycogen-elicited polymorphonuclear leukocytes (PMN); assay: inhibition of LTB4 synthesis by rat glycogen-elicited PMN (Example 72); format: cell-based, rat (female Wistar); conditions: Leukocyte; for inhibition at 10000 µM: at 10 mM, negative number denotes potentiation
From the text: This is especially true with respect to 5,12-diHETE, which is also denoted as LTB4 lsee Ford-Hitchinson, J. Roy. Soc. Med., 74, 831 (1981)]. Compounds which inhibit the PLA2 -mediated release of arachidonic acid thereby effectively prevent the oxidation of arachidonic acid to the various leukotriene products via the lipoxygenase cascade. Accordingly, the specificity of action of PLA2 inhibitors can be determined by the activity of test compounds in this assay, which measures the ability of compounds to inhibit the synthesis of LTB4 by rat glycogen-elicited polymorphonuclear leukocytes (PMN) in the presence of exogenous substrate.
The assay is carded out as follows:
as §1, §2
Gradient: (system is equilibrated with Solvent A)
Percent solvent changes are accomplished in a linear fashion.
Injections: […] of each supernatant is injected directly onto column and ^3 H arachidonic acid metabolites are monitored using an on-line radioactivity detector (Ramona, IN/U S, Fairfield, NJ).
Standards: 10^4 -2.0×10^4 dpm of eicosanoids of interest are injected in […] EtOH cocktail.
Co-chromatography with standard [^3 H] leukotriene B4 (LTB4) in medium of stimulated PMN exposed to drug is compared to that found in medium of stimulated cells exposed to no drug, generating percent inhibition.
Results are expressed as percent inhibition at a given compound dose or as an IC50 value.

[6] = target: T2, human platelet PLA2 (Homo sapiens, UniProt P14555); assay: in vitro isolated phospholipase A2 assay, human platelet PLA2 (Example 74); format: biochemical; design: dose or concentration left out as unconfirmed; conditions: read-out: % Inhibition, HP (human platelet)
T2 construct: Semi-purified human platelet acid extract PLA2; from tissue; host or cells: human platelets (semi-purified acid extract)
T2 sequence (P14555 21-144): T1 sequence (P14555 21-144)
Description: The compounds of the invention are tested in an in vitro isolated phospholipase A2 assay to determine the ability of the test compounds to inhibit the release of arachidonic acid from an arachidonic acid-containing substrate by the action of phospholipase A2 enzyme from human and non-human sources.
This assay is carried out as follows:
Into a 15 mL polypropylene tube are added the following:
^6 Two human PLA2 enzymes are used:
a) Semi-purified human platelet acid extract PLA2 (in 10 mM
sodium acetate buffer, pH 4.5). Remove protein precipitate by
centrifugation at about 2200 rpm for 10 minutes.
Incubate the 100mL reaction mixture for 10 minutes at 37° C. in a shaking water bath. The reaction is terminated by the addition of 2 mL tetrahydrofuran, followed by vortexlag. NH2 columns (100 mg/mL--Analytichem International) are conditioned with 0.5 mL tetrahydrofuran followed by 0.5 mL tetrahydrofuran/water (2 mL:0.1 mL, v/v).
The sample is loaded onto the columns and slowly drawn through them. The hydrolyzed arachidonic acid retained in the columns is eluted therefrom with 1 mL tetrahydrofuran/glacial acetic acid (2%). The arachidonic acid is transferred to scintillation vials and quantitated by b-counting analysis. A "total counts" sample is prepared by pipetting […] ^3 H-arachidonate E. coli directly into a scintillation vial to which is added 1 mL tetrahydrofuran. 10 mL aquasol (scintillation cocktail) is added to all samples. [formula]

COc1cccc2c1cc([N+](=O)[O-])c1c(C(=O)O)cc3c(c12)OCO3 [Aristolochic Acid, reference compound]
ED50 at +10 min. [1]: Not Active

C[C@@H]1C[C@H]2[C@@H]3CCC4=CC(=O)C=C[C@]4(C)[C@@]3(F)[C@@H](O)C[C@]2(C)[C@@]1(O)C(=O)CO [Dexamethasone]
ED50 at +10 min. ([2]; p.o. 3 hr, at +10 min after PLA2): 10 mg/kg

CC1=C(CC(=O)O)c2cc(OCc3ccc4ccccc4n3)ccc2/C1=C\c1ccc(Cl)cc1 [Example 1, 3-[(4-Chlorophenyl)methylene]-[2-methyl-6-(2-quinolinylmethoxy)]-3H-indene-1-acetic acid]
inhibition at 10000 µM [3]: 81% | IC50 [4]: 9.7 µM | % Change in Edema ([1]; 10 mg/kg i.v., 10 min): -6% | % Change in Edema ([1]; 10 mg/kg i.v., 30 min): -9% | % Change in Edema ([1]; 10 mg/kg i.v., 60 min): -40% | % Change in Edema ([1]; 100 mg/kg p.o., 10 min): +4% | % Change in Edema ([1]; 100 mg/kg p.o., 30 min): -27% | % Change in Edema ([1]; 100 mg/kg p.o., 60 min): -6% | inhibition at 10000 µM [5]: 96%

CSc1ccc(/C=C2/C(C)=C(CC(=O)O)c3cc(OCc4ccc5ccccc5n4)ccc32)cc1 [Example 2, 2-Methyl-3-[[4-(methylthio)phenyl]methylene]-6-(2-quinolinylmethoxy)-3H-indene-1-acetic acid]
inhibition at 10000 µM [3]: 92% | IC50 [4]: 3.6 µM | % Change in Edema ([1]; 10 mg/kg i.v., 10 min): -39% | % Change in Edema ([1]; 10 mg/kg i.v., 30 min): -43% | % Change in Edema ([1]; 10 mg/kg i.v., 60 min): -37% | % Change in Edema ([1]; 100 mg/kg p.o., 10 min): -6% | % Change in Edema ([1]; 100 mg/kg p.o., 30 min): -22% | % Change in Edema ([1]; 100 mg/kg p.o., 60 min): +18% | inhibition at 10000 µM [5]: 96%

CC1=C(CC(=O)O)c2cc(F)ccc2C1=Cc1ccc(OCc2ccc3ccccc3n2)cc1 [Example 4, 5-Fluoro-2-methyl-1-[[4-(2-quinolinylmethoxy)phenyl]methylene]-1H-indene-3-acetic acid]
inhibition at 500 µM [3]: 7% | inhibition [4]: 48% | inhibition [6]: 58% | inhibition at 500 µM ([5]; at 0.5 mM): 92%

CCCCCCOc1ccc2c(c1)c(CC(=O)O)c(C)n2Cc1ccc(Cl)cc1 [Example 19, 1-[(4-Chlorophenyl)methyl]-5-(hexyloxy)-2-methyl-1H-indole-3-acetic acid]
inhibition [4]: 45% | inhibition [6]: 71% | % Change in Edema ([2]; 30 mg/kg i.p., 30 min): -30% | % Change in Edema ([2]; 60 mg/kg i.p., 30 min): -34%

CC1=C(CC(=O)O)c2cc(OCc3ccc4ccccc4n3)ccc2C1=Cc1ccc(OCc2ccc3ccccc3n2)cc1 [Example 41, 2-Methyl-5-(2-quinolinylmethoxy)-1-[[4-(2-quinolinylmethoxy)phenyl]methylene]-1H-indene-3-acetic acid]
inhibition at 500 µM [3]: -21% | inhibition [4]: 3.8% | inhibition [6]: 90% | inhibition at 10000 µM [5]: 100%

COc1ccc2cc([C@H](C)C(=O)O)ccc2c1 [Naproxen, reference compound]
ED50 at +10 min. [1]: 18 mg/kg

COc1ccc2c(c1)c(CC(=O)O)c(C)n2C(=O)c1ccc(Cl)cc1 [indomethacin, reference compound]
IC50 [4]: 145 µM | % Change in Edema ([2]; 10 mg/kg p.o., 10 min): -32% | % Change in Edema ([2]; 10 mg/kg p.o., 30 min): -31% | % Change in Edema ([2]; 10 mg/kg p.o., 60 min): -42%

Luffarrellolide [reference compound]
ED50 at +10 min. [1]: Not Active
